From the supplement of paper PMC10307832

Assays:
Experiment in all cases: relative viability (nuclei count vs DMSO), 5 days (fraction); higher = more cells survive
Dasatinib + Trametinib = compound: Cc1nc(Nc2ncc(C(=O)Nc3c(C)cccc3Cl)s2)cc(N2CCN(CCO)CC2)n1 [Dasatinib] + CC(=O)Nc1cccc(-n2c(=O)n(C3CC3)c(=O)c3c(Nc4ccc(I)cc4F)n(C)c(=O)c(C)c32)c1 [Trametinib] (partner 0.02 µM)
How it was run: (§1)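 A single step with final 0.05% Triton X-100, 1% formaldehyde and 1 ug/ml Hoechst fixed the cells and stained nuclei 5 days after treatment. Lung cancer cell lines in 1536-well plates had been treated by pin tool the day after seeding with one drug alone or a fixed anchor-drug dose plus five library-drug doses (not always all listed) in √10 steps, and nuclei were counted on 4× images. Relative viability is the ratio of nuclei in treated wells to nuclei in vehicle wells, taken as the median of duplicate plates.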

ALW-II-49-7 + Bortezomib = compound: Cc1ccc(C(=O)Nc2cccc(C(F)(F)F)c2)cc1Nc1cncc(C(N)=O)c1 [ALW-II-49-7] + CC(C)C[C@H](NC(=O)[C@H](Cc1ccccc1)NC(=O)c1cnccn1)B(O)O [Bortezomib] (partner 0.002 µM)
How it was run: as §1

XMD13-2 + Linsitinib = compound: C1CC1C(=O)NC2=NNC3=C2C=CC(=C3)C4=CC(=CC=C4)C(=O)NC5CC5 [XMD13-2] + C[C@]1(O)C[C@@H](c2nc(-c3ccc4ccc(-c5ccccc5)nc4c3)c3c(N)nccn32)C1 [Linsitinib] (partner 1 µM)
How it was run: as §1

Row | Cell Line | relative viability (Dasatinib + Trametinib; first compound 0.005 µM) | relative viability (Dasatinib + Trametinib; first compound 0.01581 µM) | relative viability (Dasatinib + Trametinib; first compound 0.05 µM) | relative viability (Dasatinib + Trametinib; first compound 0.1581 µM) | relative viability (Dasatinib + Trametinib; first compound 0.5 µM) | relative viability (ALW-II-49-7 + Bortezomib; first compound 0.08 µM) | relative viability (ALW-II-49-7 + Bortezomib; first compound 0.253 µM) | relative viability (ALW-II-49-7 + Bortezomib; first compound 0.8 µM) | relative viability (ALW-II-49-7 + Bortezomib; first compound 2.53 µM) | relative viability (ALW-II-49-7 + Bortezomib; first compound 8 µM) | relative viability (XMD13-2 + Linsitinib; first compound 0.05 µM) | relative viability (XMD13-2 + Linsitinib; first compound 0.1581 µM) | relative viability (XMD13-2 + Linsitinib; first compound 0.5 µM) | relative viability (XMD13-2 + Linsitinib; first compound 1.581 µM) | relative viability (XMD13-2 + Linsitinib; first compound 5 µM)
1 | PC-3 [JPC-3] | 0.771 | 0.736 | 0.79 | 0.704 | 0.528 | 0.746 | 0.777 | 0.758 | 0.862 | 0.825 | 0.915 | 0.961 | 1.01 | 0.906 | 1.01
2 | HCC-44 | 1.11 | 0.94 | 1.16 | 1.17 | 0.574 | 0.84 | 0.89 | 0.885 | 0.846 | 0.889 | 0.683 | 0.694 | 0.697 | 0.704 | 0.773
3 | NCI-H2405 | 0.431 | 0.365 | 0.351 | 0.272 | 0.233 | 1.05 | 0.886 | 1.09 | 0.954 | 0.89 | 0.936 | 0.975 | 0.958 | 0.939 | 1.03
4 | LXF-289 | 0.678 | 0.746 | 0.821 | 0.555 | 0.219 | 0.973 | 0.965 | 1.02 | 1.1 | 1.04 | 0.941 | 0.942 | 0.967 | 0.984 | 0.986
5 | LOU-NH91 | 0.79 | 0.752 | 0.698 | 0.562 | 0.393 | 0.425 | 0.529 | 0.549 | 0.316 | 0.489 | 0.985 | 0.981 | 0.966 | 0.876 | 1.1
6 | A549 |  |  |  |  |  |  |  |  |  |  | 0.856 | 0.513 | 0.579 | 0.677 | 0.674
7 | H3255 | 0.667 | 0.489 | 0.587 | 0.431 | 0.297 | 0.974 | 0.841 | 0.933 | 0.679 | 0.625 | 1.12 | 1 | 0.946 | 0.97 | 0.94
8 | NCI-H1395 | 1.12 | 0.968 | 1.03 | 0.605 | 0.327 |  |  |  |  |  | 1.06 | 0.984 | 1 | 1.11 | 1.28
9 | LC-2-ad | 0.914 | 0.906 | 0.909 | 0.735 | 0.457 | 1.06 | 0.997 | 1.01 | 1.05 | 0.983 | 0.927 | 0.924 | 0.826 | 0.769 | 0.831
10 | NCI-H838 | 0.486 | 0.435 | 0.365 | 0.227 | 0.142 | 0.71 | 0.839 | 0.721 | 0.64 | 1.05 | 1.14 | 1.03 | 1.05 | 1.06 | 0.985
11 | Calu-6 |  |  |  |  |  | 1.18 | 0.95 | 1.04 | 0.785 | 0.885 | 0.949 | 0.996 |  | 0.912 | 0.913
12 | NCI-H1648 | 0.437 | 0.352 | 0.44 | 0.235 | 0.175 |  |  |  |  |  |  |  |  |  | 
13 | LCLC-97TM1 | 0.221 | 0.14 | 0.174 | 0.0952 | 0.0916 | 0.354 | 0.677 | 0.651 |  | 0.218 | 0.206 | 0.157 | 0.187 | 0.176 | 0.178
14 | HCC-15 | 0.354 | 0.336 | 0.332 | 0.253 | 0.207 | 0.957 | 0.92 | 0.959 | 1.1 | 0.952 | 0.936 | 0.869 | 0.903 | 0.947 | 0.599
15 | CAL-12T | 0.331 | 0.324 | 0.343 | 0.198 | 0.138 | 0.923 |  |  | 0.978 | 0.721 | 0.802 | 0.764 | 0.837 | 0.68 | 0.843
16 | NCI-H727 | 0.355 | 0.281 | 0.322 | 0.296 | 0.25 | 0.678 | 1.09 | 0.67 | 0.895 | 0.787 | 0.219 | 0.25 | 0.439 | 0.312 | 0.25
17 | ABC-1 |  |  |  |  |  | 0.414 | 0.34 | 0.31 | 0.318 | 0.287 | 0.918 | 0.874 | 1.04 | 0.704 | 0.86
18 | NCI-H2023 | 0.487 | 0.49 | 0.432 | 0.364 | 0.326 | 1.05 | 0.889 | 1 | 0.942 | 0.666 | 0.697 | 0.684 | 0.572 | 0.649 | 0.854
19 | NCI-H2342 | 0.662 | 0.722 | 0.774 | 0.515 | 0.294 |  |  |  |  |  |  |  |  |  | 
20 | SW 1573 | 0.531 |  | 0.475 | 0.33 | 0.433 | 1.01 | 0.983 | 1.14 | 1.01 | 0.959 | 0.82 | 0.745 | 0.849 | 0.71 | 0.577
21 | NCI-H1993 | 0.418 | 0.396 | 0.532 | 0.353 | 0.525 | 1.14 | 1.19 | 1.01 | 1.13 | 1.33 | 0.807 | 0.78 | 0.731 | 0.743 | 0.694
22 | NCI-H661 | 0.629 | 0.49 | 0.532 | 0.445 | 0.338 | 0.865 | 0.796 | 0.717 |  | 0.716 | 0.67 | 0.708 | 0.58 | 0.555 | 0.398
23 | NCI-H520 | 0.614 | 0.322 | 0.298 | 0.144 | 0.205 | 0.385 | 0.528 |  | 0.441 | 0.709 | 1.09 | 0.975 | 1.01 | 0.881 | 0.492
24 | ChaGo-K-1 | 0.89 | 0.855 | 0.95 | 0.777 | 0.6 | 0.769 | 1.23 | 1.1 | 1.18 | 0.864 |  |  |  |  | 
25 | NCI-H2085 | 0.485 | 0.297 | 0.195 | 0.214 | 0.159 | 0.989 | 1 | 1.13 | 1.16 | 0.969 | 0.894 | 0.819 | 0.873 | 0.984 | 0.963
